Patent publication US10561658B2, “Thieno- and pyrrolopyrimidine analogues as anticancer agents and methods of use thereof” (UNIVERSITY OF MARYLAND, BALTIMORE COUNTY, priority 2015, dated 2020)

What was measured:
[1] = In vivo systemic (IP) toxicity, body weight
Text: When dosing was completed, the mice were monitored for 14 days to determine any toxicity. In mice the best indicator of toxicity is weight loss.

PIK3CA/PIK3R1 = PIK3CA/PIK3R1 (Homo sapiens, UniProt P42336); test: Select Screen kinase profiling; assay type: biochemical
Text: (§1) The thieno[3,2-d]pyrimidine scaffold has been used extensively in the design of kinase inhibitors.

PIK3C3 = PIK3C3 (Homo sapiens, UniProt Q8NEB9); test: Select Screen kinase profiling; assay type: biochemical
Text: as §1

JAK3 = JAK3 (Homo sapiens, UniProt P52333); test: Select Screen kinase profiling; assay type: biochemical
Text: as §1

SRC N1 = SRC N1 (Homo sapiens, UniProt P12931); test: Select Screen kinase profiling; assay type: biochemical
Text: as §1

TYK2 = TYK2 (Homo sapiens, UniProt P29597); test: Select Screen kinase profiling; assay type: biochemical
Text: as §1

JAK1 = JAK1 (Homo sapiens, UniProt P23458); test: Select Screen kinase profiling; assay type: biochemical
Text: as §1

PIK3CD/PIK3R1 = PIK3CD/PIK3R1 (Homo sapiens, UniProt O00329); test: Select Screen kinase profiling; assay type: biochemical
Text: as §1

JAK2 JH1 JH2 V617F = molecular target: T1, JAK2 JH1 JH2 V617F (Homo sapiens, UniProt O60674, V617F); test: Select Screen kinase profiling; assay type: biochemical
T1 construct: JAK2 JH1 JH2 V617F
Text: as §1

JAK2 = JAK2 (Homo sapiens, UniProt O60674); test: Select Screen kinase profiling; assay type: biochemical
Text: as §1

MET (cMet) = MET (cMet) (Homo sapiens, UniProt P08581); test: Select Screen kinase profiling; assay type: biochemical
Text: as §1

LTK (TYK1) = LTK (TYK1) (Homo sapiens, UniProt P29376); test: Select Screen kinase profiling; assay type: biochemical
Text: as §1

PIK3CG = PIK3CG (Homo sapiens, UniProt P48736); test: Select Screen kinase profiling; assay type: biochemical
Text: as §1

PRKD1 (PKC mu) = PRKD1 (PKC mu) (Homo sapiens, UniProt Q15139); test: Select Screen kinase profiling; assay type: biochemical
Text: as §1

PRKD2 (PKD2) = PRKD2 (PKD2) (Homo sapiens, UniProt Q9BZL6); test: Select Screen kinase profiling; assay type: biochemical
Text: as §1

PIK3C2A = PIK3C2A (Homo sapiens, UniProt O00443); test: Select Screen kinase profiling; assay type: biochemical
Text: as §1

PRKCN (PKD3) = PRKCN (PKD3) (Homo sapiens, UniProt O94806); test: Select Screen kinase profiling; assay type: biochemical
Text: as §1

SRC = SRC (Homo sapiens, UniProt P12931); test: Select Screen kinase profiling; assay type: biochemical
Text: as §1

FRAP1 (mTOR) = FRAP1 (mTOR) (Homo sapiens, UniProt P42345); test: Select Screen kinase profiling; assay type: biochemical
Text: as §1

PIK3C2B = PIK3C2B (Homo sapiens, UniProt O00750); test: Select Screen kinase profiling; assay type: biochemical
Text: as §1

JAK2 JHI JH2 = molecular target: T2, JAK2 JHI JH2 (Homo sapiens, UniProt O60674); test: Select Screen kinase profiling; assay type: biochemical
T2 construct: JAK2 JHI JH2
Text: as §1

melanoma tumor = test: In vivo activity screen, intra-tumor injection; set-up: species or system mice; details: intra-tumor injection 0.01 mg/100 mm^3 tumor, 5 days on/2 days off, 21 days
Text: The asterisk denotes […] when compared to the vehicle only (n=6-10 mice). Melanoma is viewed as resistant to nucleoside analogues, since traditional FDA-approved nucleosides have minimal effects on growth inhibition (100-90% growth percent) and apoptosis (5-10% cell death).

MDA-MB-231 cells = test: Apoptosis (annexin V), MDA-MB-231; assay type: cell-based, human; details: MDA-MB-231, tested concentration
Method: Cell-cycle and apoptosis studies were conducted in MDA-MB-231 cells. Cell-cycle analysis of compound 19 at 15 μM concentration lead to arrest of 60% cells in G2/M stage. Similarly, at 1.75 μM concentration, compound 20 arrested 30% of cells in G2/M stage. […] To evaluate the possible mechanism for arrest of cell proliferation, cell-cycle distribution was measured using propidium iodide staining and flow cytometry. […] There are several possibilities that could account for this, including: (i) that cell lysis occurs rapidly following induction of apoptosis, preventing significant accumulation of annexin V-positive bodies, or (ii) that a distinct cell death pathway is triggered by compound 19.

[2] = system: human lymphocytic CEM cells; test: Cell proliferation assay, CEM; assay type: cell-based; details: CCRF-CEM, 72 h proliferation, Coulter counter
Method: Cell proliferation assays for several of the compounds were performed on L1210, a mouse lymphocytic leukemia cell line; CCRF-CEM [39] an acute lymphoblastic leukemia cell line; and HeLa, a human cancer cell line derived from a human cervical adenocarcinoma. Murine Leukemia L1210, human lymphocytic CEM and human cervix carcinoma HeLa cells were obtained from the American Type Culture Collection (ATCC) (Rockville, Md.). All assays were performed in 96-well microtiter plates. To each well were added (5-7.5)×10^4 tumor cells and a given amount of the test compound. The cells were allowed to proliferate for 48 h (murine leukemia L1210 cells) or 72 h (human lymphocytic CEM and human cervix carcinoma HeLa cells) at 37° C. in a humidified CO2-controlled atmosphere. At the end of the incubation period, the cells were counted in a Coulter counter. The IC50 (50% inhibitory concentration) was defined as the concentration of the compound that inhibited cell proliferation by 50%. […] Presence of C7 iodine on the 2,4-dichloro pyrrolo[3,2-d] (compound 20) increases the anticancer activity by a factor of 5 when compared to compound 19. […] This alludes to a) importance of C7-I towards activity against cancer cell lines for the 2,4-O-benzylated analogues (15 and 16).

Sequence of TYK2 (P29597 whole entry): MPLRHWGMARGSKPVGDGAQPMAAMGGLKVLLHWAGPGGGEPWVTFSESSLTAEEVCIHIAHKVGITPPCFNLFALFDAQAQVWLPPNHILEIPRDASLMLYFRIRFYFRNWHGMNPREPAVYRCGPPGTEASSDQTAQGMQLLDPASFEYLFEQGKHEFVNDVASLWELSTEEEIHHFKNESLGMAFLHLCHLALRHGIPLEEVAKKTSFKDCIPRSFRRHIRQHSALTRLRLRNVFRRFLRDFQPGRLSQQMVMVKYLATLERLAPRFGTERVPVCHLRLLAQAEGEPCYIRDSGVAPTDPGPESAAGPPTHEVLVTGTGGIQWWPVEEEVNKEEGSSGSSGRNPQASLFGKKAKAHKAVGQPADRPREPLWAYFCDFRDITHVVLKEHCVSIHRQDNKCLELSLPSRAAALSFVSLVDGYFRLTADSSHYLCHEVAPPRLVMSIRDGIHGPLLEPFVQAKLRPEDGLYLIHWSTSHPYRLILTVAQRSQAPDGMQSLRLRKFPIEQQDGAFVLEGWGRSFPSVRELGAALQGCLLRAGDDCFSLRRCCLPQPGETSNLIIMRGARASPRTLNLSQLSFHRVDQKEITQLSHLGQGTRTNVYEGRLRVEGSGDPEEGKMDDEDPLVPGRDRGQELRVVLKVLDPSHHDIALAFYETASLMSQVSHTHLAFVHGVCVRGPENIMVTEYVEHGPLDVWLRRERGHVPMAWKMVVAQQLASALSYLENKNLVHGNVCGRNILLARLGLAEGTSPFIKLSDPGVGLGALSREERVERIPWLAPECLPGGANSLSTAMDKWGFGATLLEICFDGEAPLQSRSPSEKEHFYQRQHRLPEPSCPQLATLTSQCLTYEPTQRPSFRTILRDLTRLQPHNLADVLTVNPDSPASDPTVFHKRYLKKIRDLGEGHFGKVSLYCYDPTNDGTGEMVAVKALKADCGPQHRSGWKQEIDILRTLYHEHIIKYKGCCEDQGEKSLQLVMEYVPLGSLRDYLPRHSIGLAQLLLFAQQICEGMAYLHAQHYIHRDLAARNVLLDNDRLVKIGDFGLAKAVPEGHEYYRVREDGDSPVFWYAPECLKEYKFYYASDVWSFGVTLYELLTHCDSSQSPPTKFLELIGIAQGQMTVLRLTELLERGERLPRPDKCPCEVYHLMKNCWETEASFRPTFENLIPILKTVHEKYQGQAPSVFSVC
Sequence of JAK3 (P52333 whole entry): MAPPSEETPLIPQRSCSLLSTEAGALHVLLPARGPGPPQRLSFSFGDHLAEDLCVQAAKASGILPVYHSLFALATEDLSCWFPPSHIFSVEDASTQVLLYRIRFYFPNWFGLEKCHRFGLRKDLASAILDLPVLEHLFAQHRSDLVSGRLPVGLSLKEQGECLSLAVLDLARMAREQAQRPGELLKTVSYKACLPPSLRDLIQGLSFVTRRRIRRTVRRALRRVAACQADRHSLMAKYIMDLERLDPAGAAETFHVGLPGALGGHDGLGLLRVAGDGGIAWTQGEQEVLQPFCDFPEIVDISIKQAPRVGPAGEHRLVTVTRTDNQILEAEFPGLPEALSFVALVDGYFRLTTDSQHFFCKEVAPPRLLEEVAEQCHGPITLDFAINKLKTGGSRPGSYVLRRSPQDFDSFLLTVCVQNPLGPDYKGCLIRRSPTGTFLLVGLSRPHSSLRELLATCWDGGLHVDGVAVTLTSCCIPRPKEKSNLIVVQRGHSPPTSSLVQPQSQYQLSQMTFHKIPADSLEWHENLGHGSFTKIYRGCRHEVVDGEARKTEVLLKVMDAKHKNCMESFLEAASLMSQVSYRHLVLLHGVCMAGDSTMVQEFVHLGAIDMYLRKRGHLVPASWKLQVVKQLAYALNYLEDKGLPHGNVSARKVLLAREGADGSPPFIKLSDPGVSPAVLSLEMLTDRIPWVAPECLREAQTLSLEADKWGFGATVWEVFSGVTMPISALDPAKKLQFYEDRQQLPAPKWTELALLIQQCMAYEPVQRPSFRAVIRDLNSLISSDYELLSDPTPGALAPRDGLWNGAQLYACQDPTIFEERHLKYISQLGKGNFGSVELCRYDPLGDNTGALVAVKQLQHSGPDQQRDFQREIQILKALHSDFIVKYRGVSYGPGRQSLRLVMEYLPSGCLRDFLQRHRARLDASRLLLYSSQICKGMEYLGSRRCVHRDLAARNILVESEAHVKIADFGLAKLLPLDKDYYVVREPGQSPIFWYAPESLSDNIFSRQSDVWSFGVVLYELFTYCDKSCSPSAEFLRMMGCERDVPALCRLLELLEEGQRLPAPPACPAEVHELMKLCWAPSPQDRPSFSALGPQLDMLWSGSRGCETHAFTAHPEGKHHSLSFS
Sequence of SRC (P12931 whole entry): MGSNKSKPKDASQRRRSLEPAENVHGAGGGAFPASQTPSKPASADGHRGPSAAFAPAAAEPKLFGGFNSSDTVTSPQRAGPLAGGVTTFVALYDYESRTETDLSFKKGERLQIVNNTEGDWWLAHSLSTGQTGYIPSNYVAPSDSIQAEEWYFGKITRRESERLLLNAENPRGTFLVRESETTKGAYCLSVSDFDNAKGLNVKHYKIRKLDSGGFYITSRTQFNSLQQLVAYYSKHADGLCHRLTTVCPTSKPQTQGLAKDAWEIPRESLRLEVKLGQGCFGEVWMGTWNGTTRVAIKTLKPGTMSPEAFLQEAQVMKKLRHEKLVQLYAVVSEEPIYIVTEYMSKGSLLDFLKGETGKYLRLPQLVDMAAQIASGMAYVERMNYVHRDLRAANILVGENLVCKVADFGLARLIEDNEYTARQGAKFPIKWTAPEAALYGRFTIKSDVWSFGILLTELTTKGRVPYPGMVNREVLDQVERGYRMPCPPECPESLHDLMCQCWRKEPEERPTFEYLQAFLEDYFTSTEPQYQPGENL
Sequence of PRKD1 (PKC mu) (Q15139 whole entry): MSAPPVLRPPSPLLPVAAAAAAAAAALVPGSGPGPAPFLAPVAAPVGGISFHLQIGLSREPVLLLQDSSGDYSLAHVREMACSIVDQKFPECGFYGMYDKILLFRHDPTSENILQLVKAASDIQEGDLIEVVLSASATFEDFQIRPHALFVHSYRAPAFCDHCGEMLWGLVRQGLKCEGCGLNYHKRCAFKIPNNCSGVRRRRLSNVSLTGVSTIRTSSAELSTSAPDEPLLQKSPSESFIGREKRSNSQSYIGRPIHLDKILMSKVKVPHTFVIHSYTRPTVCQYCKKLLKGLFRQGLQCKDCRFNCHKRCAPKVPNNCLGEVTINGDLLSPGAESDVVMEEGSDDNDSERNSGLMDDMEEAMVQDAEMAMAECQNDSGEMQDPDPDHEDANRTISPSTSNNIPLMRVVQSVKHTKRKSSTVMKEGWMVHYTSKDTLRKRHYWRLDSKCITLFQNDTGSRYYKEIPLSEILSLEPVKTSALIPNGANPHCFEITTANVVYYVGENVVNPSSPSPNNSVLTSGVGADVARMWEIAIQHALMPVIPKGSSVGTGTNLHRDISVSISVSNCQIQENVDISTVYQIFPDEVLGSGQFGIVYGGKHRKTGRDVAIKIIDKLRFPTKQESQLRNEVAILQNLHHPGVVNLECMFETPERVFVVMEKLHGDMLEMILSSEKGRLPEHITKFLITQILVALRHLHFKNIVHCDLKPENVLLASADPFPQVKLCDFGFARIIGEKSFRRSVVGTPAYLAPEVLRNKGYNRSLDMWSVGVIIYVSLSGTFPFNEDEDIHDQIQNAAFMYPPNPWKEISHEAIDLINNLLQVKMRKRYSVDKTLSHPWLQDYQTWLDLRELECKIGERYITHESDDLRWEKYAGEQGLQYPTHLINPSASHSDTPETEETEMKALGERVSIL
Sequence of JAK1 (P23458 whole entry): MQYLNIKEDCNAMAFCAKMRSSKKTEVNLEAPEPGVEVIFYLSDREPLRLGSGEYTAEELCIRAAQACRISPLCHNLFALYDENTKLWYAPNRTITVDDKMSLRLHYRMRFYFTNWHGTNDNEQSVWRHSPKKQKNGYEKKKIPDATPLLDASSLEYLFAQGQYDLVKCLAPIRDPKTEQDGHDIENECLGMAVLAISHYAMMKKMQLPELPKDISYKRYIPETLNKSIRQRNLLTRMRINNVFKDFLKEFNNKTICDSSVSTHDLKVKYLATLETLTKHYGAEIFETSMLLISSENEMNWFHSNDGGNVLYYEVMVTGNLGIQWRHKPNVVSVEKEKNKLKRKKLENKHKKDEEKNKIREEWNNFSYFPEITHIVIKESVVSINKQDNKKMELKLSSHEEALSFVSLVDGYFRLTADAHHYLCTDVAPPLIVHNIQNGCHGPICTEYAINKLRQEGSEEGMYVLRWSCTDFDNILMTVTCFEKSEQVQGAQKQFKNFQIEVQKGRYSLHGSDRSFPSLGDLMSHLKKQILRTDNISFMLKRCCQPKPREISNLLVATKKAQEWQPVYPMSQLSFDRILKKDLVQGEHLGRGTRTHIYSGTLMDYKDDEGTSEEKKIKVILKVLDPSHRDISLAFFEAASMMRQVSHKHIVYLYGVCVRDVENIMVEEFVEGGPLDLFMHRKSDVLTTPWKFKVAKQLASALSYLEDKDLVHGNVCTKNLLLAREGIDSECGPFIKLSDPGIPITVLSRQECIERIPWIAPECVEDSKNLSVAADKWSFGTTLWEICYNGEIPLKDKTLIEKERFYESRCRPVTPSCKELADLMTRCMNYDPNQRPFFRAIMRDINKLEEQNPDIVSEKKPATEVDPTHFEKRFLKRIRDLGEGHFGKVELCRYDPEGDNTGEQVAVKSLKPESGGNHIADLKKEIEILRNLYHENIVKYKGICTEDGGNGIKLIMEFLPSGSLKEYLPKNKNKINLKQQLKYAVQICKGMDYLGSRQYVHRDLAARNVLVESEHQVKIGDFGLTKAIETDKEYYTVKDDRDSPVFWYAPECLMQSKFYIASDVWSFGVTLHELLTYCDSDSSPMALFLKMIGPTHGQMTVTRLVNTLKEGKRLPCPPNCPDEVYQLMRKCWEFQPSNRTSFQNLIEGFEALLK

Clc1nc(Cl)c2sccc2n1 [Compound 1, 2,4-Dichlorothieno[3,2-d]pyrimidine]
body weight ([1]; 20 mg/kg IP, 5 days): maintaining their weight
toxicity when administered systemically ([1]; daily IP doses 5 consecutive days, monitored 14 days): non-toxic
inhibition at 5 µM (PIK3CA/PIK3R1): < 40%
inhibition at 5 µM (PIK3C3): < 40%
inhibition at 5 µM (JAK3): < 40%
inhibition at 5 µM (SRC N1): < 40%
inhibition at 5 µM (TYK2): < 40%
inhibition at 5 µM (JAK1): < 40%
inhibition at 5 µM (PIK3CD/PIK3R1): < 40%
inhibition at 5 µM (JAK2 JH1 JH2 V617F): < 40%
inhibition at 5 µM (JAK2): < 40%
inhibition at 5 µM (MET (cMet)): < 40%
inhibition at 5 µM (LTK (TYK1)): < 40%
inhibition at 5 µM (PIK3CG): < 40%
inhibition at 5 µM (PRKD1 (PKC mu)): < 40%
inhibition at 5 µM (PRKD2 (PKD2)): < 40%
inhibition at 5 µM (PIK3C2A): < 40%
inhibition at 5 µM (PRKCN (PKD3)): < 40%
inhibition at 5 µM (SRC): < 40%
inhibition at 5 µM (FRAP1 (mTOR)): < 40%
inhibition at 5 µM (PIK3C2B): < 40%
inhibition at 5 µM (JAK2 JHI JH2): < 40%
anti-cancer activity (tumor responsiveness) in vivo (melanoma tumor): comparable to the current standard of care, temozolomide

Clc1nc(Cl)c2[nH]ccc2n1 [Compound 19, 2,4-Dichloropyrrolo[3,2-d]pyrimidine]
annexin V-positive cells (MDA-MB-231 cells): modest (although statistically significant) increase
IC50 [2]: 25 µM
